Among the data in article PMC5862592, “CDK8/19 inhibition induces premature G1/S transition and ATR-dependent cell death in prostate cancer cells” (Oncotarget, 2018) are remaining binding values, retold here.

Read-outs that look alike come from different tables or passages of the source.

Test in all cases: biochemical
Set-up in all cases: KINOMEscan active site-directed competition binding assay (DiscoveRx), 456 kinases, per cent of control at 300 nM
Holding throughout (conditions): read-out: Percent of Control (%)

In one experiment the target is ALK(C1156Y) (Homo sapiens, UniProt Q9UM73, C1156Y). The method, then:
(§1) Kinase selectivity of T-474 and T-418 was evaluated at 300 nmol/L using a panel of 456 kinases at DiscoveRx (KINOMEscan). The platform employs an active site-directed competition binding assay to quantitatively measure interactions between test compounds and kinases. […] In VCaP prostate cancer cells, treatment with T-474 or T-418 suppressed the phosphorylation of the known CDK8 substrate STAT1 at Ser727 both in the absence and in the presence of IFN-γ (Figure 1B), which stimulates CDK8-mediated STAT1 phosphorylation.

The target of another experiment is EGFR(E746-A750del) (Homo sapiens, UniProt P00533, DEL746-750). The method, then: as §1
The next experiment deals with EGFR(G719S) (Homo sapiens, UniProt P00533, G719S). The procedure:
as §1

For the next experiment, the target named is EGFR(T790M) (Homo sapiens, UniProt P00533, T790M). The method, then: as §1
The target in a further experiment is T1, ERK4 (Homo sapiens, UniProt P31152).
T1 construct: gene MAPK4
T1 sequence (P31152 whole entry): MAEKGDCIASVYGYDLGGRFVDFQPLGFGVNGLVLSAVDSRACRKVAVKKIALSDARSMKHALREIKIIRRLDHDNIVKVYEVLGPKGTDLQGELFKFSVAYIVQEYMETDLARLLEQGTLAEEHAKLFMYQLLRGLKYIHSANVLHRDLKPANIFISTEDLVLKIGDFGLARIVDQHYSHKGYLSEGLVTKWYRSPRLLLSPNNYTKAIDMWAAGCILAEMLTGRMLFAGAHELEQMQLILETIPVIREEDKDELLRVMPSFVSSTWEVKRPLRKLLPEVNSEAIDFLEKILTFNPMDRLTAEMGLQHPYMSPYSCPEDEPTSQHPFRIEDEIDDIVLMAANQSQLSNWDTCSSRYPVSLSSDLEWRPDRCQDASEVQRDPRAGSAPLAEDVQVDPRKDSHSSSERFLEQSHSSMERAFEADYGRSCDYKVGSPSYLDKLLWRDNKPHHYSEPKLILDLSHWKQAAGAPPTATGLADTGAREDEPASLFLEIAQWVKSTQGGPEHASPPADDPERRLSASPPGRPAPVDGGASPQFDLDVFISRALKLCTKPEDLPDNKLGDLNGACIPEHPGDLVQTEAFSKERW
The procedure: as §1

For a further experiment, the target named is T2, FAK (Homo sapiens, UniProt Q05397).
T2 construct: gene PTK2
The method, then:
as §1

A further experiment concerns the target T3, HPK1 (Homo sapiens, UniProt Q92918).
T3 construct: gene MAP4K1
The method, then: as §1

The target in the next experiment is MAP3K2 (Homo sapiens, UniProt Q9Y2U5). The method, then: as §1
The next experiment deals with T4, MEK4 (Homo sapiens, UniProt P45985).
T4 construct: gene MAP2K4
The method, then: as §1

The next experiment deals with MYLK4 (Homo sapiens, UniProt Q86YV6). The method, then:
as §1

Another experiment concerns the target NEK11 (Homo sapiens, UniProt Q8NG66). The procedure: as §1
The target in the next experiment is T5, PIK4CB (Homo sapiens, UniProt Q9UBF8).
T5 construct: gene PI4KB
T5 sequence (Q9UBF8 whole entry): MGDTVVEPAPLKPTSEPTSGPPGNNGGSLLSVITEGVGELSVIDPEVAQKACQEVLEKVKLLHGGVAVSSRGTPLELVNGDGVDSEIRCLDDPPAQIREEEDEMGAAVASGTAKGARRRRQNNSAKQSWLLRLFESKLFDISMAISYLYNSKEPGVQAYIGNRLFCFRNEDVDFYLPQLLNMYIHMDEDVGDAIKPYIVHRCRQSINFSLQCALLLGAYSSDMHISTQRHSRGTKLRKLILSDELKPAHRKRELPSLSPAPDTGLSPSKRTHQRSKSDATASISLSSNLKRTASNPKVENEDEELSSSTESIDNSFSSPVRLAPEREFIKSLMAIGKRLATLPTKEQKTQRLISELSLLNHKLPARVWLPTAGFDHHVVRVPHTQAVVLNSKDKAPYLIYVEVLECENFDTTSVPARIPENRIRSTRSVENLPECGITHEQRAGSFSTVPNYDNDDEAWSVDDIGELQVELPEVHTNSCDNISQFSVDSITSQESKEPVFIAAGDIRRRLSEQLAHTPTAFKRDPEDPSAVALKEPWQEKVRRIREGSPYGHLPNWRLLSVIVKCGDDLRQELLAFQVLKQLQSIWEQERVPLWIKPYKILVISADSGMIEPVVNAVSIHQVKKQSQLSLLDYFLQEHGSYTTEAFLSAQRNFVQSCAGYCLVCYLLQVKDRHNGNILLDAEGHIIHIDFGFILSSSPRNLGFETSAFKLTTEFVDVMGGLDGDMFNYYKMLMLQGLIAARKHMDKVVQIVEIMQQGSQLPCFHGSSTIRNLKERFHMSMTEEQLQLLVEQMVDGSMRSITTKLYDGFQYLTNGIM
The method, then:
as §1

A further experiment has as its target PKN2 (Homo sapiens, UniProt Q16513). The procedure:
as §1

The next experiment addresses RIOK3 (Homo sapiens, UniProt O14730). The procedure:
as §1

The target of another experiment is ROCK1 (Homo sapiens, UniProt Q13464). The method, then: as §1
Chain of ROCK1 (Q13464 whole entry): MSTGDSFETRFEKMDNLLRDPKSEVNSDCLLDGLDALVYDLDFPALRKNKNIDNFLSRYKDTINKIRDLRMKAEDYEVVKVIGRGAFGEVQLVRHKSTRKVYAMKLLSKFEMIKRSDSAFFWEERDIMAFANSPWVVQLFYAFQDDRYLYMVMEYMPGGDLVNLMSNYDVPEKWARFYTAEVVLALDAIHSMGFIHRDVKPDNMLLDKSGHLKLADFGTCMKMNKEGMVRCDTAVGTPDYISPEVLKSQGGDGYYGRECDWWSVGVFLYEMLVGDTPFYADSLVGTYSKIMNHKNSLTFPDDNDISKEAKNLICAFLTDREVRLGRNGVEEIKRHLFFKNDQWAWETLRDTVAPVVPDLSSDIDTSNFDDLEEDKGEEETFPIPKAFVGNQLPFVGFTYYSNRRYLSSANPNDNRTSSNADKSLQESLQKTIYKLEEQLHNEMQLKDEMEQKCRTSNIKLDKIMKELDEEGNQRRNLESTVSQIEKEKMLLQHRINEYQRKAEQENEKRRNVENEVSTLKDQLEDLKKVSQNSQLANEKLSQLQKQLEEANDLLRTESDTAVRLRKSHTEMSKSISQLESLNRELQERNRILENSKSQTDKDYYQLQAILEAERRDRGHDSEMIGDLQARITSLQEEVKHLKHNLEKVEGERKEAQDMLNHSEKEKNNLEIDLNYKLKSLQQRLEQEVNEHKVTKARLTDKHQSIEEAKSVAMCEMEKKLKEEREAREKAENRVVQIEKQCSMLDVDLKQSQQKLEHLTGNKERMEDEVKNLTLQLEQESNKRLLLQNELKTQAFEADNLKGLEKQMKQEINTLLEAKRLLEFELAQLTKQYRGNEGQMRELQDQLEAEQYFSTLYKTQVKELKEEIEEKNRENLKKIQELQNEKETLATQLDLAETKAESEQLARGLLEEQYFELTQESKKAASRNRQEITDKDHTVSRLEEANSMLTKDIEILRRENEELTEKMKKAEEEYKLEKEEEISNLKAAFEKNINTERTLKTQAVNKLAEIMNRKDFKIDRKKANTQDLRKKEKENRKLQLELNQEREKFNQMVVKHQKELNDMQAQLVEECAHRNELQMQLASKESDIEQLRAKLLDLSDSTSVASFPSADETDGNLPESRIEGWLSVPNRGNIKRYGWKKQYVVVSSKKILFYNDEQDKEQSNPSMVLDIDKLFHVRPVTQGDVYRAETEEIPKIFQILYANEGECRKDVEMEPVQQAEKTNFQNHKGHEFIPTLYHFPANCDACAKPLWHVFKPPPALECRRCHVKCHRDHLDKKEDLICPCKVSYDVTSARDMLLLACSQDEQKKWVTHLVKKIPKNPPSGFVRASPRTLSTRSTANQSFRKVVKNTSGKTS
For experiment [1], the target named is T6, RSK1(Kin.Dom.1-N-terminal) (Homo sapiens, UniProt Q15418).
T6 construct: gene RPS6KA1; Kin.Dom.1-N-terminal
T6 sequence (Q15418 whole entry): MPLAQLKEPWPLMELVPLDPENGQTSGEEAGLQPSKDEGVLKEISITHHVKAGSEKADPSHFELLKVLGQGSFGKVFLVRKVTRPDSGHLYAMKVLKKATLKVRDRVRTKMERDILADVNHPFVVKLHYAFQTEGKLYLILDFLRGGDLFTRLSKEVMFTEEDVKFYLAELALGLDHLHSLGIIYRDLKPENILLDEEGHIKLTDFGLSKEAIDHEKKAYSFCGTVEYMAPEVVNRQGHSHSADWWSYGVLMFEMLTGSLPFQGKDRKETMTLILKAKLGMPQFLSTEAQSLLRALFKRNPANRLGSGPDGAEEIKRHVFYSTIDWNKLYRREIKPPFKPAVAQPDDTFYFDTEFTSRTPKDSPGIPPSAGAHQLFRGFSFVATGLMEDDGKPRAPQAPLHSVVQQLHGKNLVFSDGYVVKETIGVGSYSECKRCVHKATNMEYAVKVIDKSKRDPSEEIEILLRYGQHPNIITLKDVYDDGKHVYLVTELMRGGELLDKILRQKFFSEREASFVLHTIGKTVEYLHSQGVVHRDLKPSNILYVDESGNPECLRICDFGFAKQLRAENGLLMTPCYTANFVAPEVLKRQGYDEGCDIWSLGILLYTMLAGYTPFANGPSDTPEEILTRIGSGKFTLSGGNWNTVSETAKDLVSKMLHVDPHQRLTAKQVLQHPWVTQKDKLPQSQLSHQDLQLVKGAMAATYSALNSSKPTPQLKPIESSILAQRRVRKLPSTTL
The method, then:
as §1

For experiment [2], the target named is T7, RSK3(Kin.Dom.2-C-terminal) (Homo sapiens, UniProt Q15349).
T7 construct: gene RPS6KA2; Kin.Dom.2-C-terminal
T7 sequence (Q15349 whole entry): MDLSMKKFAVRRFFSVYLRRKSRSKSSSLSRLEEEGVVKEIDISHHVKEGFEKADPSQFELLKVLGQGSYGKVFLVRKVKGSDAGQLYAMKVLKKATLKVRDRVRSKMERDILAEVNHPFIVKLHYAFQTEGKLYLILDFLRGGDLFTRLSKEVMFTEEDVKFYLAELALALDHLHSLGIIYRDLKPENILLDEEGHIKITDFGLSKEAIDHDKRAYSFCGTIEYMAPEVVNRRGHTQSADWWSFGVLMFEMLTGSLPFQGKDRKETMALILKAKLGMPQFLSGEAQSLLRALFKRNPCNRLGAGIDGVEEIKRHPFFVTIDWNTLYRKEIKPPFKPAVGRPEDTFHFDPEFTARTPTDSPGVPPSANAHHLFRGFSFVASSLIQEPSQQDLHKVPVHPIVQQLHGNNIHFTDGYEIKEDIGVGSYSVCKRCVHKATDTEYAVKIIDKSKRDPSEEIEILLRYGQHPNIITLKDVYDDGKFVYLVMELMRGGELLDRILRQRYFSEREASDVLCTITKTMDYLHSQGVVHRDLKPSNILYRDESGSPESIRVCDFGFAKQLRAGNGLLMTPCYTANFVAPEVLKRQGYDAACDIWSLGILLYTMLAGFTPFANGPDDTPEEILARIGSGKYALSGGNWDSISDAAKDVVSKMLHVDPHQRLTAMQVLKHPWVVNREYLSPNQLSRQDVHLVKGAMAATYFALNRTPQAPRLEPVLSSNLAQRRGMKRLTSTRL
The method, then: as §1

In the next experiment the target is STK36 (Homo sapiens, UniProt Q9NRP7). The method, then:
as §1

Another experiment deals with TBK1 (Homo sapiens, UniProt Q9UHD2). The procedure: as §1
The target of another experiment is T8, VEGFR2 (Homo sapiens, UniProt P35968).
T8 construct: gene KDR
The procedure: as §1

The target of a further experiment is T9, YSK4 (Homo sapiens, UniProt Q56UN5).
T9 construct: gene MAP3K19
The procedure:
as §1

T3 sequence (Q92918 whole entry): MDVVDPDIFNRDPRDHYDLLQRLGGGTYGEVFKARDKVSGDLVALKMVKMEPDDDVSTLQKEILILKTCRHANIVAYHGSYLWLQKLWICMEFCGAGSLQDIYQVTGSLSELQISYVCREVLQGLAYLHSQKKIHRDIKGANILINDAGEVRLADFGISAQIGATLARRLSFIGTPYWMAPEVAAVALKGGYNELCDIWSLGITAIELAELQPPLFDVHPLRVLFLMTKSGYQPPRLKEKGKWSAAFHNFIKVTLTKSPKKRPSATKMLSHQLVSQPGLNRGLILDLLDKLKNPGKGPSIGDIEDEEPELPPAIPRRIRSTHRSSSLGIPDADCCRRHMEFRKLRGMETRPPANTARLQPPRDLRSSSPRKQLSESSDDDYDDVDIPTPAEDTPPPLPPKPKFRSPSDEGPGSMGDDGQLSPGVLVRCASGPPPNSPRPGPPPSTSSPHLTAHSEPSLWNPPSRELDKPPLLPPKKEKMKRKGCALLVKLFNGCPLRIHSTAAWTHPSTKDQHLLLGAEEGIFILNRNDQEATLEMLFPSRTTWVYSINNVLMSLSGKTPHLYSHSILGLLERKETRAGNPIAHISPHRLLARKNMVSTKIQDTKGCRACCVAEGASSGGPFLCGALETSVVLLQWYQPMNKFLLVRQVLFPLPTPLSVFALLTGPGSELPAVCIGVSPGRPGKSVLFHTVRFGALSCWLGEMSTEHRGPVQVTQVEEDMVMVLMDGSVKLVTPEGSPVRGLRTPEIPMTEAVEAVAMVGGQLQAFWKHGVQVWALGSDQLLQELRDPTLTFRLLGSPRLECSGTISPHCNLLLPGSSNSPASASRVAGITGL

In the case of `Cc1ncccc1Oc1sc(C(N)=O)c2c1-c1c(cnn1C)CC2` [T-474, 1-methyl-8-((2-methylpyridin-3-yl)oxy)-4,5-dihydro-1H-thieno[3,4-g]indazole-6-carboxamide], the remaining binding at 0.3 µM is 98% on ALK(C1156Y); 87% on EGFR(E746-A750del); 92% at EGFR(G719S); 100% on EGFR(T790M); 100% on ERK4; 88% at FAK. Further, the remaining binding at 0.3 µM at HPK1 was 78%; at MAP3K2, 100%; on MEK4, 100%; at MYLK4, 90%; on NEK11 it was 100%; at PIK4CB, 100%. The remaining binding at 0.3 µM at PKN2 turned out to be 100%; on RIOK3, 74%; on ROCK1 it was 100%; in [1] it was 95%; in [2], 100%; on STK36 it was 100%. The results for the remaining binding at 0.3 µM on TBK1, on VEGFR2 and on YSK4 were 67%, 100% and 100%, respectively.

As for `O=C(/C=C/c1cnccc1-c1ccc(F)cc1)Nc1ccc(CCc2nnco2)cc1` [T-418, (2E)-3-(4-(4-fluorophenyl)pyridin-3-yl)-N-(4-(2-(1,3,4-oxadiazol-2-yl)ethyl)phenyl)acrylamide], the remaining binding at 0.3 µM on ALK(C1156Y) (sheet T-418) amounted to 91%; at EGFR(E746-A750del) (sheet T-418) it was 92%; on EGFR(G719S) (sheet T-418), 68%; on EGFR(T790M) (sheet T-418) it was 95%; at ERK4 (sheet T-418), 100%; at FAK (sheet T-418), 80%. In addition, the remaining binding at 0.3 µM at HPK1 (sheet T-418) is 95%; at MAP3K2 (sheet T-418), 100%; on MEK4 (sheet T-418), 100%; on MYLK4 (sheet T-418), 80%; on NEK11 (sheet T-418), 100%; on PIK4CB (sheet T-418), 100%. The remaining binding at 0.3 µM at PKN2 (sheet T-418) was found to be 95%; on RIOK3 (sheet T-418) it was 78%; on ROCK1 (sheet T-418), 81%; in [1] (sheet T-418), 78%; in experiment [2] (sheet T-418) it was 100%; on STK36 (sheet T-418), 100%. For the same compound, the remaining binding at 0.3 µM at TBK1 (sheet T-418) came out at 75%; on VEGFR2 (sheet T-418), 100%; on YSK4 (sheet T-418), 100%.
